The text below walks through data of PubChem BioAssay (NCI).

For orientation: GI50 means the concentration giving 50% growth inhibition. As usually defined, the TGI is the concentration giving total growth inhibition.

Molecules are shown by their SMILES.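 Following 48 hours of exposure in 96-well plates, responses at five concentrations were used to interpolate endpoints linearly. At the GI50, growth is halved. TGI marks complete inhibition of growth.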

Test systems include NCI-H522 lung; COLO 205 colon; NCI/ADR-RES ovarian; EKVX NSCLC; SNB-75 CNS; M14 melanoma; K-562 leukemia; BT-549 breast; LOX IMVI melanoma; OVCAR-8 ovarian.
Common to all, as to test: DTP human tumour cell line panel, 48 h

Regarding `O=C1C(=O)c2ccccc2C(O)=C1CCCc1ccc(C2CCCC2)cc1`, the GI50 with NCI-H522 lung is 5010 nM; in the experiment on COLO 205 colon, 6820 nM; in the experiment on NCI/ADR-RES ovarian, 5890 nM; in the experiment on EKVX NSCLC, 11700 nM; in the experiment on SNB-75 CNS, 6550 nM; in the experiment with M14 melanoma, 8860 nM. For the same compound, the GI50 with K-562 leukemia is 3310 nM; in the experiment with BT-549 breast it was 10500 nM; in the experiment on LOX IMVI melanoma, 3160 nM; in the experiment with OVCAR-8 ovarian, 5800 nM. Further, the TGI in the experiment on NCI-H522 lung was determined as 25.9 µM; in the experiment with COLO 205 colon, 54.3 µM; in the experiment with NCI/ADR-RES ovarian it was 30.2 µM; with EKVX NSCLC, 64.7 µM; in the experiment with SNB-75 CNS, 38.7 µM; in the experiment with M14 melanoma, 23.7 µM. Further, the TGI was 10.4 µM in the experiment with K-562 leukemia, 48.6 µM in the experiment with BT-549 breast, 9220 nM in the experiment on LOX IMVI melanoma and 60 µM in the experiment on OVCAR-8 ovarian.

Turning to `NCCCn1c2c(c3ccc([N+](=O)[O-])cc3c1=O)C(=O)c1cc(-c3ccccc3)ccc1-2`, the GI50 was 220 nM in the experiment with NCI-H522 lung; 1840 nM in the experiment on NCI/ADR-RES ovarian; 1610 nM with EKVX NSCLC; 579 nM in the experiment with SNB-75 CNS; 1120 nM in the experiment on M14 melanoma; 44.3 nM in the experiment on K-562 leukemia. Moreover, the GI50 in the experiment with BT-549 breast is 2090 nM; in the experiment with LOX IMVI melanoma, 916 nM; in the experiment with OVCAR-8 ovarian it was 310 nM. Also, the total growth inhibition concentration (TGI) in the experiment with NCI-H522 lung amounted to 0.467 µM; with NCI/ADR-RES ovarian it was 3.76 µM; in the experiment on EKVX NSCLC it was 3.45 µM; in the experiment on SNB-75 CNS, 1.87 µM; in the experiment on M14 melanoma, 2.37 µM; with K-562 leukemia, 0.185 µM. Also, the TGI is 3.77 µM in the experiment on BT-549 breast, 2590 nM in the experiment on LOX IMVI melanoma and 0.884 µM in the experiment with OVCAR-8 ovarian.

For `c1ccc(CN2CCC3(CC2)SSC2(CCN(Cc4ccccc4)CC2)SS3)cc1`, the TGI was more than 100 µM with NCI-H522 lung; more than 100 µM in the experiment with COLO 205 colon; more than 100 µM in the experiment on NCI/ADR-RES ovarian; 62 µM in the experiment on EKVX NSCLC; more than 100 µM in the experiment with SNB-75 CNS; more than 100 µM with M14 melanoma. Further, the TGI in the experiment on K-562 leukemia was more than 100 µM; with BT-549 breast it was more than 100 µM; in the experiment with LOX IMVI melanoma, more than 100000 nM; with OVCAR-8 ovarian it was more than 100 µM.

On to `Cn1c2ccccc2c(=O)c2c(O)cc3c(c21)CC(C1(C)CO1)O3` (stereo unspecified), for which the TGI in the experiment with NCI-H522 lung came out at 9.79 µM; with COLO 205 colon, 19.7 µM; with NCI/ADR-RES ovarian, 3.2 µM; in the experiment with EKVX NSCLC it was 14 µM; with SNB-75 CNS, 24 µM; in the experiment with M14 melanoma, 2.93 µM. Besides, the TGI with K-562 leukemia stood at 7.84 µM; with BT-549 breast it was 4.5 µM; with LOX IMVI melanoma, 61.3 nM; in the experiment with OVCAR-8 ovarian, 2.51 µM.

With `COc1cc2oc(-c3ccc(O)cc3O)c(CC=C(C)C)c(=O)c2c(O)c1/C=C/C(C)C`, the concentration for total growth inhibition (TGI) turned out to be 12.1 µM in the experiment with NCI-H522 lung; 10.3 µM in the experiment on COLO 205 colon; 8.24 µM in the experiment on NCI/ADR-RES ovarian; 15.3 µM in the experiment on EKVX NSCLC; 9.04 µM with SNB-75 CNS; 3.56 µM in the experiment on M14 melanoma. Further, the TGI turned out to be 4.64 µM in the experiment on K-562 leukemia, 11.4 µM in the experiment with BT-549 breast, 3320 nM with LOX IMVI melanoma and 3.18 µM with OVCAR-8 ovarian.

Consider `COc1ccc2c(c1)C1OCCNC1CC2` (stereo unspecified), for which the TGI with NCI-H522 lung, in the experiment on COLO 205 colon, in the experiment with NCI/ADR-RES ovarian, in the experiment with EKVX NSCLC, in the experiment with SNB-75 CNS and in the experiment on M14 melanoma was more than 100 µM in each case. The TGI is more than 100 µM in the experiment on K-562 leukemia, more than 100 µM in the experiment on BT-549 breast, more than 100000 nM with LOX IMVI melanoma and more than 100 µM in the experiment with OVCAR-8 ovarian.

For the compound `NC1CCC(Nc2nc(NCc3cc(Cl)ccc3O)c3ncn(C4CCCC4)c3n2)CC1` (stereo unspecified), the GI50 in the experiment with NCI-H522 lung was 152 nM; with COLO 205 colon it was 96.5 nM; in the experiment with NCI/ADR-RES ovarian, 156 nM; in the experiment on EKVX NSCLC, 262 nM; in the experiment on SNB-75 CNS, 114 nM; with M14 melanoma it was 162 nM. Also, the GI50 in the experiment with K-562 leukemia was 175 nM; with BT-549 breast, 262 nM; in the experiment with LOX IMVI melanoma, 537 nM. The concentration for total growth inhibition (TGI) in the experiment with NCI-H522 lung turned out to be 0.335 µM; in the experiment on COLO 205 colon, 0.238 µM; in the experiment on NCI/ADR-RES ovarian it was 0.316 µM; with EKVX NSCLC, 0.928 µM; with SNB-75 CNS, 0.33 µM; with M14 melanoma, 0.33 µM. Also, the figures for the TGI in the experiment with K-562 leukemia, in the experiment on BT-549 breast and in the experiment on LOX IMVI melanoma were 0.461 µM, 0.877 µM and 5000 nM, respectively.

As for `CCCCCCCCCCC/C=C\C[C@H](O)C/C=C1/C(=O)C=C[C@@H]1C/C=C\CCCC(=O)OC`, the GI50 with NCI-H522 lung was 753 nM; in the experiment with COLO 205 colon, 1210 nM; in the experiment with NCI/ADR-RES ovarian, 925 nM; with EKVX NSCLC, 766 nM; in the experiment with SNB-75 CNS, 2070 nM; in the experiment with M14 melanoma it was 1040 nM. The GI50 in the experiment on K-562 leukemia was 898 nM; in the experiment with BT-549 breast it was 750 nM; in the experiment with LOX IMVI melanoma it was 536 nM; with OVCAR-8 ovarian it was 966 nM. Further, the TGI stood at 2.36 µM with NCI-H522 lung; 3.83 µM in the experiment on COLO 205 colon; 2.93 µM in the experiment with NCI/ADR-RES ovarian; 2.04 µM with EKVX NSCLC; 6.79 µM with SNB-75 CNS; 4.32 µM in the experiment on M14 melanoma. Also, the TGI was determined as 3.2 µM in the experiment with K-562 leukemia, 1.8 µM in the experiment with BT-549 breast, 1050 nM with LOX IMVI melanoma and 4.64 µM with OVCAR-8 ovarian.

For `CNc1cc2nc3cc(NC)c(C)cc3cc2cc1C`, the GI50 in the experiment on NCI-H522 lung was 552 nM; with COLO 205 colon it was 640 nM; in the experiment on NCI/ADR-RES ovarian, 1690 nM; with EKVX NSCLC, 1040 nM; in the experiment on SNB-75 CNS, 3750 nM; in the experiment with M14 melanoma, 2240 nM. The GI50 in the experiment on K-562 leukemia was 486 nM; with BT-549 breast, 3480 nM; in the experiment on LOX IMVI melanoma, 446 nM; with OVCAR-8 ovarian it was 754 nM. Moreover, the TGI in the experiment with NCI-H522 lung came to 5.06 µM; in the experiment with COLO 205 colon, 2.35 µM; in the experiment with NCI/ADR-RES ovarian it was 9.28 µM; in the experiment on EKVX NSCLC, 8.48 µM; with SNB-75 CNS it was 19.4 µM; in the experiment on M14 melanoma, 14.1 µM. Also, the TGI with K-562 leukemia is more than 100 µM; in the experiment with BT-549 breast, 14.3 µM; in the experiment with LOX IMVI melanoma, 1790 nM; in the experiment on OVCAR-8 ovarian, 9.83 µM.
